Data as given in US5610297A, “Peptides ketoamides” (Georgia Tech Research Corp., priority 1995, dated 1997).

How the values were obtained:
[1] = molecular target: T1, Calpain I from human erythrocytes (Homo sapiens, UniProt P07384); experiment: Inhibition of calpain I (Suc-Leu-Tyr-AMC hydrolysis); assay type: biochemical
T1 construct: Calpain I was purified from human erythrocytes; from tissue; host or cells: human erythrocytes
T1 sequence (P07384 1-714): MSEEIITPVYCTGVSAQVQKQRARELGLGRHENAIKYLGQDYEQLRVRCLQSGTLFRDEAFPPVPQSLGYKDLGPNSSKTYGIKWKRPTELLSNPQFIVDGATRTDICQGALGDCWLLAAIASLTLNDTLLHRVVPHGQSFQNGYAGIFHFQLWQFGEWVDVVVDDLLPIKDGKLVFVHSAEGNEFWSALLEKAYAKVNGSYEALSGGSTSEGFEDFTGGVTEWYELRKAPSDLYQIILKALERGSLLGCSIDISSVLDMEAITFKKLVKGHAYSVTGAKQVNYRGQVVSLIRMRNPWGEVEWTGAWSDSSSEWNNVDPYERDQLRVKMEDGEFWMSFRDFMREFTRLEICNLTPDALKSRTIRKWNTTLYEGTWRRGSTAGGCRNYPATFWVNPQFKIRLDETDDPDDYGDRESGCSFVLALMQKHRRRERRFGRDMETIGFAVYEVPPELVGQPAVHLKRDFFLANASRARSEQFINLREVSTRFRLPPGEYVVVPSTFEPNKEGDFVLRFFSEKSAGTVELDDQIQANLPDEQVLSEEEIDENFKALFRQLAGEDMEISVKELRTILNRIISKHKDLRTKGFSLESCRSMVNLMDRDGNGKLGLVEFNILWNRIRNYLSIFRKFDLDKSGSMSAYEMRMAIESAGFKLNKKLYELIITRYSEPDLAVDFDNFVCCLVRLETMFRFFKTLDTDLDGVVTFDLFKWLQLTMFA
T1 sequence (P04632 1-268 partner): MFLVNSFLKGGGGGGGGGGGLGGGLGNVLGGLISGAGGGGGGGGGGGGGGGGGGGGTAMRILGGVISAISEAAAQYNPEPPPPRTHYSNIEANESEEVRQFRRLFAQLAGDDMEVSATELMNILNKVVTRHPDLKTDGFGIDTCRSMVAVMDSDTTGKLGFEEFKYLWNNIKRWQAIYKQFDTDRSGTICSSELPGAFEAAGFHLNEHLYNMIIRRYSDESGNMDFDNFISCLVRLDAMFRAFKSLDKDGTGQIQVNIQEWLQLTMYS
Experimental: (§1) Materials and Methods. HEPES, heparin, and A23187 were obtained from Calbiochem. Suc-Leu-Tyr-AMC and chromogenic substrates were obtained from Sigma. Calpain I was purified from human erythrocytes according to the method of Kitahara (Kitahara et al., J. Biochem. 95, 1759-1766) omitting the Blue-Sepharose step. Calpain II from rabbit muscle and cathepsin B were purchased from Sigma. Papain was purchased from Calbiochem.
(§2) Assay of Inhibitory Potency. Peptide α-ketoamides were assayed as reversible enzyme inhibitors. Various concentrations of inhibitors in Me2 SO were added to the assay mixture which contained buffer and substrate. The reaction was started by the addition of the enzyme and the hydrolysis rates were followed spectrophotometrically or fluorimetrically.
(§3) Calpain I from human erythrocytes and calpain II from rabbit were assayed using Suc-Leu-Tyr-AMC [Sasaki et al., J. Biol. Chem. 259, 12489-12494 (1984); incorporated herein by reference], and the AMC (7-amino-4-methylcoumarin) release was followed fluorimetrically (excitation at 380 nm, and emmision at 460 nm). Calpains were assayed in 25 mM Tris pH=8.0, 10 mM CaCl2. Fluorescence was followed using a Gilson FL-1A fluorometer or a Perkin-Elmer 203 Fluorescence spectrometer. Cathepsin B was assayed in 20 mM sodium acetate pH=5.2, 0.5 mM dithiothreitol using Bz-Phe-Val-Arg-p-nitroanilide as substrate. Alternately, cathepsin B was assayed with Z-Arg-Arg-AFC [Barrett and Kirschke, Methods Enzymol. 80, 535-561 (1981); incorporated herein by reference], and the AFC (7-amino-4-trifluoromethylcoumarin) release was followed fluorimetrically (excitation at 400 nm and emmision at 505 nm). Papain was assayed in 100 mM KPO4, 1 mM EDTA, 2.5 mM cysteine pH=6.0 using Bz-Arg-AMC or Bz-Arg-NA [Kanaoka et al., Chem. Plmrm. Bull. 25, 3126-3128 (1977); incorporated herein by reference] as a substrate. The AMC (7-amino-4-methylcoumarin) release was followed fluorimetrically (excitation at 380 nm, and emmision at 460 nm). Enzymatic hydrolysis rates were measured at various substrate and inhibitor concentrations, and KI values were determined by either Lineweaver-Burk plots or Dixon plots.
(§4) A 0.1M Hepes, 0.5M NaCl, pH 7.5 buffer was utilized for human leukocyte elastase (HLE), porcine pancreatic elastase (PPE), chymotrypsin and cathepsin G. A 0.1 Hepes, 0.01M CaCl2, pH 7.5 buffer was utilized for trypsin, plasmin, and coagulation enzymes. A 50 mM Tris-HCl, 2 mM EDTA, 5 mM cysteine, pH 7.5 was used as a buffer for papain. A 88 mM KH2 PO4, 12 mM Na2 HPO4, 1.33 mM EDTA, 2.7 mM cysteine, pH 6.0 solution was used as a buffer for cathepsin B. A 20 mM Hepes, 10 mM CaCl2, 10 mM mercatoethanol, pH 7.2 buffer was utilized for calpain I and calpain II.

[2] = molecular target: Calpain II from rabbit muscle; experiment: Inhibition of calpain II (Suc-Leu-Tyr-AMC hydrolysis); assay type: biochemical
Experimental: as §1, §2, §3, §4

[3] = molecular target: chymotrypsin (Bos taurus, UniProt P00766, DEL14-15/DEL147-148); experiment: Inhibition of chymotrypsin (Suc-Val-Pro-Phe-NA hydrolysis); assay type: biochemical, bovine
Experimental: as §2, §4
(§5) HLE and PPE were assayed with MeO-Suc-Ala-Ala-Pro-Val-NA and Suc-Ala-Ala-Ala-NA, respectively [Nakajima et al., J. Biol. Chem. 254, 4027-4032 (1979); incorporated herein by reference]. Human leukocyte cathepsin G and chymotrypsin Aα were assayed with Suc-Val-Pro-Phe-NA [Tanaka et al., Biochemistry 24, 2040-2047 (1985); incorporated herein by reference]. The hydrolysis of peptide 4-nitroanilides was measured at 410 nm [ε410 =8800 M^-1 cm^-1; Erlanger et al., Arch. Biochem. Biophys. 95, pp 271-278 (1961); incorporated herein by reference]. Trypsin, thrombin, human plasma kallikrein, porcine pancreatic kallikrein, human factor XIa, and human plasmin were assayed with Z-Arg-SBzl or Z-Gly-Arg-SBu-i [McRae et al., Biochemistry 20, 7196-7206 (1981); incorporated herein by reference]. All peptide thioester hydrolysis rates were measured with assay mixtures containing 4,4'-dithiodipyridine [ε324 =19800 M^-1 cm^-1; Grasetti & Murray, Arch. Biochem. Biophys. 119, 41-49 (1967); incorporated herein by reference].

[4] = Half-life in liver; assay type: in vitro ADME; conditions: unit inferred, unit assumed
[5] = molecular target: cathepsin B; experiment: Inhibition of cathepsin B; assay type: biochemical; conditions: read-out: KI Cath B
Experimental: as §1, §2, §3, §4

[6] = molecular target: porcine pancreatic elastase (PPE) (Sus scrofa, UniProt P00772); experiment: Inhibition of PP elastase (Suc-Ala-Ala-Ala-NA hydrolysis); assay type: biochemical
porcine pancreatic elastase (PPE), sequence (P00772 27-266): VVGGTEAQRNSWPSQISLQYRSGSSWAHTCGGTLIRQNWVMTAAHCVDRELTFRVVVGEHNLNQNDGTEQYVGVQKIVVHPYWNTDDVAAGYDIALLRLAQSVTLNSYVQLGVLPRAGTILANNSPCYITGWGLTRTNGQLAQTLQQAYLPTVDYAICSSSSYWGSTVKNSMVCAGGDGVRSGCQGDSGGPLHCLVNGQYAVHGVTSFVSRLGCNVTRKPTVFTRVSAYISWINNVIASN
Experimental: as §2, §4, §5

Ki [1] [µM] | better inhibitor of calpain I than Z-Leu-Phe-CONH-Et ([1]; relative to Z-Leu-Phe-CONH-Et) [fold] | Ki [2] [µM] | Ki [3] [µM] | t 1/2 liver [4] [h] | Ki [5] [µM] | Ki [6] [µM] | Structure (SMILES)
0.5 | 14 | 0.23 | > 150 | > 1 | 2.4 | 65 | CCNC(=O)C(=O)[C@H](CC)NC(=O)[C@H](CC(C)C)NC(=O)OCc1ccccc1 [Z--Leu--Abu--CONH--Et, Z-Leu-Abu-CONH-Et]
0.2 |  |  | > 300 | > 1 | 13 | 5 | CCCCNC(=O)C(=O)C(CC)NC(=O)C(CC(C)C)NC(=O)OCc1ccccc1 (stereo not drawn) [Z--Leu--Abu--CONH--nBu, Z-Leu-Abu-CONH-nBu]
7 |  | 0.32 | 73 | > 1 | 6 | > 150 | CCNC(=O)C(=O)[C@H](Cc1ccccc1)NC(=O)[C@H](CC(C)C)NC(=O)OCc1ccccc1 [Z--Leu--Phe--CONH--Et, Z-Leu-Phe-CONH-Et]
15 |  | 0.05 | 18 | > 1 | 3 | > 300 | CCCNC(=O)C(=O)C(Cc1ccccc1)NC(=O)C(CC(C)C)NC(=O)OCc1ccccc1 (stereo not drawn) [Z--Leu--Phe--CONH--nPr, Z-Leu-Phe-CONH-nPr]
